Measured values as given in patent US20250161312A1, “A METHOD FOR THE TREATMENT OF CHEMOTHERAPEUTIC DRUG-INDUCED NEPHROTOXICITY” (INSTITUT NATIONAL DE LA SANTÉ ET DE LA RECHERCHE MÉDICALE, priority 2022, published 2025).

Tests used:
H1975 cells [1] = experiment: Immunoblot quantification in H1975 cells; format: cell-based; details: 20 μM cisplatin, 10 nM KW6002, 24 hours
Method: FIG. 7. […] Caspase 3/-7 activity (n=3 independent experiments) (A) and the number of γH2AX nuclear foci (n=36-63 nuclei/group) (B) were determined. […] Results are expressed as the mean±SEM (n=3 independent experiments). (E) Tail moment was assessed by comet assay. A total of 50 cells per condition were analyzed. *** P<0.001; 1-way ANOVA followed by Tukey's post hoc test. […] (I) KW6002 increased yH2AX expression in tumors from mice of the LLC1 syngeneic model. Quantification of nuclear yH2AX expression.
Cells and tissues were homogenized using RIPA buffer (Sigma) supplemented with protease and phosphatase inhibitors (Pierce). 10 μg of total proteins were heated for 10 min at 70° C. and loaded on NuPAGE Novex gels (Thermo Fisher Scientific). After transfer of proteins to nitrocellulose membranes, membranes were blocked with 5% milk in TBS-tween followed by incubation with anti-cleaved caspase 3 (1/1000; #9661, Cell Signaling) or anti-cleaved PARP1 (1/1000; #5625, Cell Signaling) primary antibodies. Visualization of protein was achieved by using horseradish peroxidase-coupled secondary antibodies (1/2000; #7074, Cell signaling). Detection signal was performed by using the ECL select chemiluminescent kit (GE Healthcare) and Image Quant LAS 4000 (GE Healthcare). Data were analyzed with Image J. Membranes were probed with anti-GAPDH (glyceraldehyde-3-phosphate deshydrogenase) antibody as normalizer (G9545, Sigma).

[2] = Cumulative model of cisplatin toxicity; format: in vivo; details: FIG. 5
Description: FIG. 5. […] BUN quantification.

H1975 cells [3] = experiment: Cell efflux (flow cytometry) in H1975 cells; format: cell-based; details: cancer cells in response to cisplatin, data not shown
Method: The basic cell efflux function was assessed using an EFLUXX-ID Green Multidrug Resistance Assay Kit (ENZO Life Sciences). Briefly, 2.5×10^5 cells/condition were collected, washed with PBS, and incubated with the EFLUXX-ID Green Detection Reagent for 30 minutes at 37° C., and then efflux was measured immediately by flow cytometry (CytoFLEX LX, Beckman Coulter). All experiments were performed in triplicate, with the measurement of 10,000 individual cells. Data were analyzed using Kaluza Analysis Software (Beckman Coulter).

RPTEC/hTERT cells [4] = experiment: Cell concentrations of platinum; format: cell-based, human; details: cisplatin 50 μM, KW-6002 25 μM, 48 hours
Method: Tissues (35 mg) and cell pellets were first mineralized with hydrochloric acid (30% Suprapur, Merck) or nitric acid (69.5%, Carlo Erba), respectively. Analysis of tissue samples was performed by Graphite Furnace Atomic Absorption Spectrometry (GF-AAS) using an Aanalyst 800 (Perkin Elmer)., while cell samples analysis was performed by Inductively Coupled Plasma Mass Spectrometry (ICP-MS) using an ICAP-Qc (Thermo Scientific). Platinum concentration was finally normalized to the accurately measured kidney mass, or to the number of cells previously assessed.

RPTEC/hTERT cells [5] = experiment: Red Oil staining of RPTEC/hTERT cells; format: cell-based, human; details: cisplatin 50 μM, 25 μM KW-6002, 48 hours
Method: FIG. 6. KW6002 alleviates the cisplatin-induced nephrotoxicity associated with apoptosis, lipid metabolism, and oxidative stress. (A) Tail moment assessed by comet assay; 50 cells/condition were analyzed. (B and C) KW6002 attenuates cisplatin-induced renal lipid accumulation, assessed by Red Oil staining. […] Results are the mean±SEM (n=6-9 mice/group). (F-H) KW6002 attenuated cisplatin-induced oxidative stress in RPTEC/hTERT1 cells. (F and G) Gene expression of Nrf2 (F) and HO1 (G). […] Results are the mean±SEM (n=3 independent experiments).
10 μm frozen kidney mouse sections were fixed with ethanol (60%) then incubated for 15 min with Oil Red O Solution (Fisher Biotech) dissolved in isopropanol. After several washes with ddH2O, samples were incubated 3 min with hematoxylin. Lipid droplets are stained in red whereas nuclei appeared blue. […] RPTEC/hTERT cells were fixed with ethanol (60%) then incubated for 15 min with Oil Red O Solution. The cells were washed three times with ddH2O and incubated 3 min with hematoxylin. Coverslips were rinsed with H2O before mounting on microscope slides using glycerol gelatin aqueous slide mounting medium (Sigma). Quantifications were performed blindly using ImageJ software. […] The resulting red color images were quantified using a custom threshold (0.173 for RPTEC/hTERT cells and 0.140 for kidney stainings).

CCn1c(=O)c2c(nc(/C=C/c3ccc(OC)c(OC)c3)n2C)n(CC)c1=O [KW-6002, 8-[(E)-2-(3,4-dimethoxyphenyl)vinyl]-1,3-diethyl-7-methyl-3,7-dihydro-1H-purine-2,6-dione]
apoptosis: caspase 3 (H1975 cells [1]; FIG. 7C): did not impede the antitumoral effect of cisplatin | apoptosis: PARP (H1975 cells [1]; FIG. 7D): even potentiated the efficacy of cisplatin | cell cycle: cyclin D1 (H1975 cells [1]; FIG. 7G): did not impede the antitumoral effect of cisplatin | cell cycle: PCNA (H1975 cells [1]; FIG. 7H): even potentiated the efficacy of cisplatin | BUN quantification, cisplatin-induced kidney injury [2]: protects from cisplatin-induced kidney injury | efflux (H1975 cells [3]): significantly reduced | accumulation of cisplatin (platinum) in cells (RPTEC/hTERT cells [4]): limits the accumulation of cisplatin | lipid accumulation induced by cisplatin (RPTEC/hTERT cells [5]): significantly reduced
